Consider 1 compound from US6166290A, “Glutathione-S-conjugate transport in plants” (The Trustees of the University of Pennsylvania, priority 1997, dated 2000).

Usually Km stands for the substrate concentration at which the rate is half of its maximum.

Where “and” joins values, the source holds several entries; their conditions need not be identical. Identical values can stand only once. Like-named read-outs stand apart in the source and are kept apart here.

Series [1] concerns the target T1, AtMRP2 (Arabidopsis thaliana, UniProt Q42093).
T1 construct: S. cerevisiae DTY168 (ycf1 null) vacuolar-enriched membrane vesicles
Put plainly: AtMRP2-dependent uptake by membrane vesicles from pYES3-AtMRP2-transformed DTY168 cells. Format: biochemical. The essentials: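 Vacuolar membrane-enriched vesicles from DTY168 yeast expressing AtMRP2 took up 61.3 μM [3H]DNP-GS for 10 min; glucose (200 mM) plus hexokinase (50 units/ml) was then added to deplete ATP, while controls received nothing. Uptake was stopped with ice-cold sorbitol/Tris-Mes pH 8.0 and filtered, with filter radioactivity counted by scintillation. Nonenergized uptake was measured without ATP.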

The subject of series [2] is membrane vesicles purified from pYES3-transformed DTY168 cells. Put plainly: DNP-GS uptake by membrane vesicles from pYES3 (empty vector)-transformed DTY168 cells. Format: biochemical, Saccharomyces cerevisiae. How it is done:
S. cerevisiae strain DTY168 (MATα his6, leu2-3, -112, ura3-52 ycf1::hisG) was transformed with pYES3-AtMRP1 or empty vector lacking the AtMRP1 insert (pYES3) by the LiOAc/PEG method (Giest et al., 1991, Yeast 7:253-263) and selected for uracil prototrophy by plating on AHC medium containing tryptophan (Kim et al., 1994, supra).
For the preparation of membrane vesicles, 15 ml volumes of stationary phase cultures of the transformants were diluted into 1 L of fresh AHC medium and grown to an OD600 nm of about 1.2. Membrane vesicles were purified as described herein and in Kim et al. (1995, supra).
DNP-GS uptake was measured as described herein in 200 μl reaction volumes containing 3 mM ATP, 3 mM MgSO4, 5 μM gramicidin-D, 10 mM creatine phosphate, 16 units/ml creatine kinase, 50 mM KCl, 1 mg/ml BSA, 400 mM sorbitol, 25 mM Tris-Mes (pH 8.0) and the indicated concentrations of [^3 H]DNP-GS (17.4 mCi/mmol).

Series [3] relates to vacuolar GS-X pump (vacuolar membrane vesicles, Z. mays roots). Conditions: Zea mays root; cited from earlier work.
The target of series [4] is T2, YCF1 (vacuolar membrane vesicles purified from DTY165 cells) (Saccharomyces cerevisiae, UniProt P39109).
T2 construct: endogenous in cells; host or cells: S. cerevisiae DTY165 (wild type YCF1), vacuolar membrane vesicles
Put plainly: [3H]DNP-GS uptake by vacuolar membrane vesicles purified from DTY165 cells. Format: biochemical. The essentials: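 ATP-dependent [3H]DNP-GS (66.2 μM) transport measured by filtration and scintillation counting of Ficoll-purified yeast vacuolar vesicles (DTY165 wild type; DTY167 ycf1Δ), 1–60 min at 25 °C in sorbitol/Tris-Mes pH 8.0 with 3 mM ATP, 3 mM MgSO4 and gramicidin-D. Nonenergized uptake without ATP/Mg2+.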

For series [5], the system named is vacuolar membrane vesicles purified from Arabidopsis leaf / root. The settings on record: cited from earlier work.
For series [6], the system named is endogenous GS-X pump of plant vacuolar membranes. The settings on record: read-out: Km for transport by endogenous plant vacuolar GS-X pump; cited from earlier work.
In series [7] the test system is vacuolar GS-X pump (vacuolar membrane vesicles, V. radiata hypocotyls). The settings on record: cited from earlier work.
Series [8] relates to vacuolar GS-X pump (vacuolar membrane vesicles, Z. mays roots). Put plainly: GS-conjugate uptake by vacuolar membrane vesicles from roots of Z. mays. The class given is biochemical, Zea mays.
The subject of series [9] is vacuolar membrane vesicles purified from Beta vulgaris storage root. The settings on record: cited from earlier work.

T2 sequence (P39109 whole entry): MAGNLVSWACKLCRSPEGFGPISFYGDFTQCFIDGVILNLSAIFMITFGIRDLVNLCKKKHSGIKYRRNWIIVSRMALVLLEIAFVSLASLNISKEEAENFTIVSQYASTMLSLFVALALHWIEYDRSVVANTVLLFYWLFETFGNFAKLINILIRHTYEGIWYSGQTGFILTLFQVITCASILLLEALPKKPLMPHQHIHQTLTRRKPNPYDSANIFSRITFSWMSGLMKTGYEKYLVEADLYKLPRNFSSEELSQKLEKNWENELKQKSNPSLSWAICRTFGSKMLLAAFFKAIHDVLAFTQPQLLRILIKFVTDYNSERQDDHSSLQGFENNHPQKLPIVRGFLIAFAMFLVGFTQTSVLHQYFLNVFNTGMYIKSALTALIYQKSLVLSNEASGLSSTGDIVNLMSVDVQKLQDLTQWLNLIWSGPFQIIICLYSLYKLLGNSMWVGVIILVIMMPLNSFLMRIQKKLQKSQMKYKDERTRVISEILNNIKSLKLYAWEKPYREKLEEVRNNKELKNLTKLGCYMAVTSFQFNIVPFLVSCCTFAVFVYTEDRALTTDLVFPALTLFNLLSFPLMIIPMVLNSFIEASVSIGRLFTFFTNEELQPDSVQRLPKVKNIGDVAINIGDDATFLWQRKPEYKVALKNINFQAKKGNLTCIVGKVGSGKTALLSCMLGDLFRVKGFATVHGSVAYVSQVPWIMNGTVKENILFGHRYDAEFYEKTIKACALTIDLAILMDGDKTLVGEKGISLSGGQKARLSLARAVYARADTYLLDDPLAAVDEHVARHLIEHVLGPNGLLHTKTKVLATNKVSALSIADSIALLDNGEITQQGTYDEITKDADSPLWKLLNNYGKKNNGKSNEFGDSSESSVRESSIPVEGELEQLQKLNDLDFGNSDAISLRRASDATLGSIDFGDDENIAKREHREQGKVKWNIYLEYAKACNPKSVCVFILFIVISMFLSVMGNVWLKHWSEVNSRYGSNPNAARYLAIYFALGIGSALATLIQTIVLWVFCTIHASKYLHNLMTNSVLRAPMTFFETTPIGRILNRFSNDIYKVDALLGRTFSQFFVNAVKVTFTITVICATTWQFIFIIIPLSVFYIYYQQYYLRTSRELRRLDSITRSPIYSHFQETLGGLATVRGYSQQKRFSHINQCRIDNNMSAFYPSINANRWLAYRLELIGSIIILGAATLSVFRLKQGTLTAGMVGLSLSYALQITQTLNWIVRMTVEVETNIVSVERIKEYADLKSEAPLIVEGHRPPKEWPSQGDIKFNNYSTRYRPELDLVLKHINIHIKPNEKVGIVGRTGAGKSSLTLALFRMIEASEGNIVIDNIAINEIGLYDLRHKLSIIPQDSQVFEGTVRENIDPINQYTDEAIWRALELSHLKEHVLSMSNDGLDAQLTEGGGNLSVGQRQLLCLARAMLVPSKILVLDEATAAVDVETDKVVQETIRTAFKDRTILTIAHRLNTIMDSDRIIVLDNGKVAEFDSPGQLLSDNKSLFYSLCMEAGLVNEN
T1 sequence (Q42093 whole entry): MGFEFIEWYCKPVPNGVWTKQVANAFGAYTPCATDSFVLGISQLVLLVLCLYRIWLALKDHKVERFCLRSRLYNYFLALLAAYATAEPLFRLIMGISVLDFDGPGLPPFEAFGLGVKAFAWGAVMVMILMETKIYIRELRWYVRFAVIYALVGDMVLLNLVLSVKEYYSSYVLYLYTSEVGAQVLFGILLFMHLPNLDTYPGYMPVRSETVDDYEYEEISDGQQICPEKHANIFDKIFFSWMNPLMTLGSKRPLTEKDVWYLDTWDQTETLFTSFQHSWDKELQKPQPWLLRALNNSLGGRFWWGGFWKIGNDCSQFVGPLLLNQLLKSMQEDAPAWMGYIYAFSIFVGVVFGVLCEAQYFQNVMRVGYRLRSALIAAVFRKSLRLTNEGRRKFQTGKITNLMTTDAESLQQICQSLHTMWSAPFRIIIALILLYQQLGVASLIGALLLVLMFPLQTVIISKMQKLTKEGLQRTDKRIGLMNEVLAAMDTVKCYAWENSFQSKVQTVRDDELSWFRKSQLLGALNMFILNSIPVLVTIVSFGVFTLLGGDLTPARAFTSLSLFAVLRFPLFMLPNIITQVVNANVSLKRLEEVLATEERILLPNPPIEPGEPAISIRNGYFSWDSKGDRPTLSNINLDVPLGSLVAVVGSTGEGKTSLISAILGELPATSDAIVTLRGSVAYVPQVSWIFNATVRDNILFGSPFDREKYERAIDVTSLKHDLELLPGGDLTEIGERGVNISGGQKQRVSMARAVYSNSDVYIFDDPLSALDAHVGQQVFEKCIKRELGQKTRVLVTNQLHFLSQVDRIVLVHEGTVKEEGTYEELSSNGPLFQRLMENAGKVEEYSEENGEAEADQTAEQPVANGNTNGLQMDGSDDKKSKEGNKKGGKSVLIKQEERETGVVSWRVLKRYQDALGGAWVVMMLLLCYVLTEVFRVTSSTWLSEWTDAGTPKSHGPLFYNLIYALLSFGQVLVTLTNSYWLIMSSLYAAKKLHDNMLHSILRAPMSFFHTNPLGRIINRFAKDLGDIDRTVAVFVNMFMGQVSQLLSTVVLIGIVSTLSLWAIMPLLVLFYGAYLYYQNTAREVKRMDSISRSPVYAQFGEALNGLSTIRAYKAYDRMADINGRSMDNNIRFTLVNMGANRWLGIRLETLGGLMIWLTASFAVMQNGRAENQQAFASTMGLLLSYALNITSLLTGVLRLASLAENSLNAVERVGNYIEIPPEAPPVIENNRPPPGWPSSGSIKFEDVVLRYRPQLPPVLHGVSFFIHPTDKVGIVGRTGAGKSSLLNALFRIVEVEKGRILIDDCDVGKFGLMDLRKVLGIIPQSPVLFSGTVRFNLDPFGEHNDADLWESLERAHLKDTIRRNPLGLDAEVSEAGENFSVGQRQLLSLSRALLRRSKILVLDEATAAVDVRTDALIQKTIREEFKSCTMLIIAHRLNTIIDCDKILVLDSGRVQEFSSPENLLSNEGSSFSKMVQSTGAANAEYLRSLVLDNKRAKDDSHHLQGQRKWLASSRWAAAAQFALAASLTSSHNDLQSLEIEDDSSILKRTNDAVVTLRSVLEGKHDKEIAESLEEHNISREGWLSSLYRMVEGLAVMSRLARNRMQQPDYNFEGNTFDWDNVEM

With `N[C@@H](CCC(=O)N[C@@H](CSc1ccc([N+](=O)[O-])cc1[N+](=O)[O-])C(=O)NCC(=O)O)C(=O)O` [DNP-GS, S-(2,4-dinitrophenyl)glutathione], the “Vmax for AtMRP2-dependent [3H]DNP-GS uptake in the presence of Bn-NCC-1” value in series [1] (15 μM Bn-NCC-1) was 18.3±1.6 nmol/mg/10/min. The “Vmax for AtMRP2-dependent uptake” value in series [1] (MgATP-dependent, uncoupler-insensitive) was determined as 16.3±3.1 nmol/mg/10 min. Also, the “initial rate of DNP-GS uptake” value in [2] (61.3 μM DNP-GS) came out at 0.1 nmol/mg/min; in [4] (3 mM MgATP, 66.2 μM DNP-GS), 12.2 nmol/mg/min. Besides, the Km in [2] (read-out: apparent Km for DNP-GS uptake) was above 500 µM; in [6] it was 81.3 ± 41.8 µM. Further, the “rate of MgATP-dependent, uncoupler-insensitive DNP-GS uptake” value is reported as 2.1 nmol/mg/20 minutes in series [3]; 2.3 nmol/mg/20 minutes in [5] (Arabidopsis leaf); 3.8 nmol/mg/20 minutes in [5] (Arabidopsis root); 5.8 nmol/mg/20 minutes in series [7] (Vigna radiata hypocotyl); 18.2 nmol/mg/20 minutes in series [9]. In addition, the “Vmax(DNP-GS) of MgATP-dependent uncoupler-insensitive uptake” value in series [4] (3 mM MgATP, 5 μM gramicidin D) is 51.0±16.3 nmol/mg/10 minutes and 51.0±6.3 nmol/mg/10 minutes. Moreover, in series [4] (Table 1: 66.2 μM DNP-GS, 3 mM MgATP, no addition), the “DNP-GS uptake, control” value worked out at 77.7 ± 1.0 nmol/mg/10 minutes. Besides, in series [4] (Table 2: 5 μM gramicidin D, no compound), the “MgATP-dependent, uncoupler-insensitive DNP-GS uptake, control” value was 47.9 ± 2.5 nmol/mg/10 minutes. Moreover, the “MgATP-dependent, uncoupler-insensitive DNP-GS uptake, vacuolar membrane” value in series [4] (Table 4, vacuolar membrane vesicles from DTY165 cells) was determined as 69.9 ± 1.0 nmol/mg/10 min. Also, in series [4] (crude microsomes from DTY165 cells), the “MgATP-dependent, uncoupler-insensitive DNP-GS uptake, crude microsomes” value was 2.5 ± 0.3 nmol/mg/10 min. For the same compound, the Km estimated previously in this system in [7] was 80 µM. Besides, in series [7] (comparison value for DNP-GS), the “Vmax of GS-X pump” value was 12 nmol/mg/20 minutes. The IC50 in series [8] (read-out: I50 for uptake of ABA-GS) turned out to be 232 µM; in [8] (read-out: I50 for uptake of C3G-GS), 112 µM; in series [8] (read-out: I50 for uptake of IAA-GS), 110 µM.
